Assay results: patent US8497293B2, “Haloalkylsubstituted aryloxyalkylimidazolines for use as pesticides” (Syngenta Crop Protection LLC, priority 2007, dated 2013)
Counter-ions that a name gives are not always drawn. Like-named read-outs stand apart in the source and are kept apart here.

Assays:
[1] = test system: Tetranychus urticae (Two-Spotted Spider Mite); assay: Tetranychus urticae bean leaf disc spray test; type: in vivo; conditions: foliar, 192 h, read-out: control (egg mortality, larval mortality, adult mortality)
Description: Bean leaf discs on agar in 24-well microtiter plates wer sprayed with test solutions at an application rate of 200 ppm. After drying, the leaf discs are infested with mite populations of mixed ages. 8 days later, discs are checked for egg mortality, larval mortality, and adult mortality. The following compounds gave 100% control: 1.001, 1.003, 1.004, 1.005, 1.007, 1.016, 1.021, 1.022, 1.023, and 1.024. The following compounds gave 80% control: 1.019, 1.025 and 1.027.

[2] = test system: Myzus persicae (Green Peach Aphid); assay: Myzus persicae pea seedling root (systemic) test; type: in vivo; conditions: 144 h, read-out: control (mortality)
Description: Roots of pea seedlings, infested with an aphid population of mixed ages, were placed directly in the test solutions of 24 ppm. 6 days after introduction, samples were checked for mortality. The following compounds gave 100% control: 1.001, 1.003, 1.016, 1.021, 1.022 and 1.024. The following compounds gave 80% control: 1.005, 1.019, 1.020 and 1.023.

[3] = test system: Myzus persicae (Green Peach Aphid); assay: Myzus persicae sunflower leaf disc spray test; type: in vivo; conditions: foliar, 144 h, read-out: control (mortality)
Method: Sunflower leaf discs were placed on agar in a 24-well microtiter plate and sprayed with test solutions at an application rate of 200 ppm. After drying, the leaf discs were infested with an aphid population of mixed ages. After an incubation period of 6 DAT, samples were checked for mortality. The following compounds gave 100% control: 1.001, 1.003, 1.004, 1.005, 1.006, 1.007, 1.008, 1.016, 1.017, 1.019, 1.021, 1.023 and 1.024. The following compounds gave 80% control: 1.002 and 1.026. The following compounds gave 50% control: 1.010, 1.018, 1.025 and 1.027.

[4] = test system: Heliothis virescens (Tobacco Budworm); assay: Heliothis virescens egg/larval test on artificial diet; type: in vivo; conditions: read-out: control (egg mortality, larval mortality, growth regulation)
Method: Eggs (0-24 h old) were placed in 24-well microtiter plate on artificial diet and treated with test solutions at an application rate of 200 ppm by pipetting. After an incubation period of 4 days, samples were checked for egg mortality, larval mortality, and growth regulation. The following compounds gave 100% control: 1.016, 1.020 and 1.024. The following compounds gave 80% control: 1.001, 1.003 and 1.022. The following compounds gave 50% control: 1.004, 1.007, and 1.014.

[5] = 200 ppm by pipetting, eggs 0-24 h old on artificial diet, 4 days incubation

Compound | mortality at 200 ppm [1] | mortality at 24 ppm [2] | mortality at 200 ppm [3] | mortality at 200 ppm [4] | melting point | mortality at 200 ppm [4, 5]
CCCCC(Oc1cccc(C(F)F)c1C)C1=NCCN1 (stereo not shown) [Compound 1.019] | 80% | 80% | 100% |  |  | 
CCC(Oc1cccc(C(F)F)c1C)C1=NCCN1 (stereo not shown) [Compound 1.023] | 100% | 80% | 100% |  |  | 
CCC(Oc1cccc(C(F)(F)F)c1C)C1=NCCN1 (stereo not shown) [Compound 1.001, 2-[1-(2-methyl-3-trifluoromethyl-phenoxy)-propyl]-4,5-dihydro-1H-imidazole] | 100% | 100% | 100% | 80% |  | 
CCCC(Oc1cccc(C(F)(F)F)c1S(C)(=O)=O)C1=NCCN1 (stereo not shown) |  |  |  |  | 112 to 120 °C | 
CCCCC(Oc1cccc(CF)c1C)C1=NCCN1 (stereo not shown) [Compound 1.020] |  | 80% |  |  |  | 100%
CCC(Oc1cccc(C(F)(F)F)c1C(F)(F)F)C1=NCCN1 (stereo not shown) |  |  |  |  | 127 to 133 °C | 
CCCCC(Oc1cccc(C(F)(F)F)c1C)C1=NCCN1 (stereo not shown) [Compound 1.004] | 100% |  | 100% |  |  | 50%
CCCC(Oc1cccc(C(F)(F)F)c1C)C1=NCCN1 (stereo not shown) [Compound 1.003] | 100% | 100% | 100% |  |  | 80%
CCCC(Oc1cccc(CF)c1C)C1=NCCN1 (stereo not shown) [Compound 1.024] | 100% | 100% | 100% |  |  | 100%
CCC(Oc1cccc(CF)c1C)C1=NCCN1 (stereo not shown) [Compound 1.022] | 100% | 100% |  | 80% |  | 
CCCC(Oc1cccc(C(F)F)c1C)C1=NCCN1 (stereo not shown) [Compound 1.016] | 100% | 100% | 100% |  |  | 100%
CCCC(Oc1cccc(C(F)(F)F)c1SC)C1=NCCN1 (stereo not shown) (as salt: maleate) |  |  |  |  | 90 to 109 °C | 
CCC(Oc1cccc(C(F)F)c1C1CC1)C1=NCCN1 (stereo not shown) [Compound 1.017] |  |  | 100% |  |  | 
CCC(Oc1cccc(C(F)(F)F)c1CO)C1=NCCN1 (stereo not shown) (as salt: chloride) |  |  |  |  | 150 to 157 °C | 
CCc1c(OC(CC)C2=NCCN2)cccc1C(F)(F)F (stereo not shown) (as salt: oxalate) |  |  |  |  | 185 to 187 °C | 
Cc1c(OC(C2=NCCN2)C(C)C)cccc1C(F)(F)F (stereo not shown) [Compound 1.005] | 100% | 80% | 100% |  |  | 
Cc1c(OC(C2=NCCN2)C(C)C)cccc1C(F)F (stereo not shown) [Compound 1.021] | 100% | 100% | 100% |  |  | 
CCC(Oc1cccc(C(F)(F)F)c1C(F)F)C1=NCCN1 (stereo not shown) [Compound 1.002] |  |  | 80% |  |  | 
